Patent publication US6444684B1 (priority 1993, dated 2002)
Where two headings read alike, the source gives them in different places.

Key:
[1] = tested on: Prostate Cancer cell lines; experiment: NCI in vitro anticancer screen (SRB), prostate cancer subpanel; details: 48 hours exposure; average percent growth over the cell lines
Experimental: (§1) Compounds chosen for the program are initially tested in an in vitro anticancer screen. A total of fifty-five human tumor cell lines, derived from nine cancer types (lung, colon, melanoma, renal, ovarian, brain, prostate, breast and leukemia), are used in this screen. The tumor cells are inoculated over a series of standard 96-well microtiter plates on day 0. These cells are then preincubated on the microtiter plates for 24 hours. The test compounds are added to the wells in five 10-fold dilutions starting from the highest soluble concentration. Each compound is tested against every cell line in the panel. The compounds are incubated for 48 hours with the tumor cell lines. At the termination of the assay, the cells are fixed in situ, washed, and dried. Sulforhodamine B (SRB), a pink anionic dye that binds to the basic amino acids of trichloroacetic acid-fixed cells, is added. The cells are washed again, and the remaining dye is a function of the adherent cell mass. The bound stain is solubilized and measured spectrophotometrically. The data are entered from automatic reading devices into a computer for subsequent storage and analysis.
(§2) The measured effect of each test compound on the cell lines is calculated according to one or the other of the following two expressions:
(§3) If (Mean ODtest−Mean ODtzero)□0, then PG=100×(Mean ODtest−Mean ODtzero)/(Mean ODctrl−Mean ODtzero);
(§4) If (Mean ODtest−Mean ODtzero)<0, then PG=100×(Mean ODtest−Mean ODtzero)/Meantzero;

[2] = tested on: 3LL = Lewis Lung Carcinoma Cells; details: for Differential Index 3LL: 3LL = Lewis lung carcinoma cells, compared with normal NRKE cells
Breast Cancer cell lines = experiment: NCI in vitro anticancer screen (SRB), breast cancer subpanel; details: 48 hours exposure; average percent growth over the cell lines
Experimental: as §1, §2, §3, §4

HIV-RT = HIV-RT (Human immunodeficiency virus type 1 group M subtype B, UniProt P03366); experiment: HIV-RT inhibition by AZT-TP, lavendamycin analogs and their combinations; type: biochemical; parameters: unit of the concentration uncertain; details: AZT-TP Conc. 0 (unit uncertain); for % inh. ave.: average of three trials
Source text: AZT-TP was used for these in vitro studies since AZT is naturally phosphorylated in vivo.
The results of these tests are given in Table XVIII and XIX below, where the percent inhibition of HIV-RT activity is reported for three different trials and then averaged in the seventh column. […] .

[3] = tested on: H/1.2 = ras^H Transformed NRKE Cells; details: for Differential Index H/1.2: H/1.2 = ras^H transformed NRKE cells, compared with normal NRKE cells
CNS Cancer cell lines = experiment: NCI in vitro anticancer screen (SRB), CNS cancer subpanel; details: 48 hours exposure; average percent growth over the cell lines
Experimental: as §1, §2, §3, §4
(§5) First, a data sheet is provided which lists, for each cell line, the Mean ODtzero, the Mean ODctrl, the Mean ODtest for each of the five concentrations, the calculated PGs for each concentration, and the response parameters G150, TGI, and LC50.
(§6) Third, mean graphs at each of the principal response parameters (GI50, TGI, and LC50) are provided. […] Since the bar scale is logarithmic, a bar two units to the right implies the compound achieved the response parameter (e.g., GI50) for the cell line at a concentration 1/100 the mean concentration required over all cell lines, and thus the cell line is unusually sensitive to that compound. Bars extending to the left correspondingly imply sensitivity less than the mean. Thus, the mean graphs facilitate visual scanning of data for potential patterns of selectivity for particular cell lines or for particular subpanels with respect to a selected response parameter.

Renal Cancer cell lines = experiment: NCI in vitro anticancer screen (SRB), renal cancer subpanel; details: for Activity (Average PG for highest dose tested) Renal Cancer: 48 hours exposure, average percent growth over the cell lines
Experimental: as §1, §2, §3, §4, §5, §6

Leukemia cell lines = experiment: NCI in vitro anticancer screen (SRB), leukemia subpanel; details: for Activity (Average PG for highest dose tested) Leukemia: 48 hours exposure, average percent growth over the cell lines
Experimental: as §1, §2, §3, §4, §5, §6

Melanoma cell lines = experiment: NCI in vitro anticancer screen (SRB), melanoma subpanel; details: 48 hours exposure; average percent growth over the cell lines
Experimental: as §1, §2, §3, §4, §5, §6

[4] = tested on: K/1 = ras^K Transformed NRKE Cells; details: for Differential Index K/1: K/1 = ras^K transformed NRKE cells, compared with normal NRKE cells
[5] = tested on: N/4.2-NRKE transformed by the human ras^N gene; details: for Differential Index N/4.2: N/4.2 = ras^N transformed NRK cells, compared with normal NRKE cells
[6] = tested on: Ovarian Cancer cell lines; experiment: NCI in vitro anticancer screen (SRB), ovarian cancer subpanel; details: 48 hours exposure; average percent growth over the cell lines
Experimental: as §1, §2, §3, §4

[7] = tested on: Non-Small Cell Lung Cancer cell lines; experiment: NCI in vitro anticancer screen (SRB), non-small cell lung cancer subpanel; details: 48 hours exposure; average percent growth over the cell lines
Experimental: as §1, §2, §3, §4, §5, §6

[8] = tested on: normal rat kidney epithelial (NRKE) cells
Colon Cancer cell lines = experiment: NCI in vitro anticancer screen (SRB), colon cancer subpanel; details: 48 hours exposure; average percent growth over the cell lines
Experimental: as §1, §2, §3, §4

[9] = tested on: N/4.2-NRKE transformed by the human ras^N gene; experiment: cells; details: N42, read-out: LC50 N/4.2
[10] = tested on: H/1.2 = ras^H Transformed NRKE Cells; experiment: cells; details: Rattus norvegicus, read-out: LC50 H/1.2
[11] = tested on: 3LL = Lewis Lung Carcinoma Cells; experiment: cells; details: Mus musculus
in vitro = details: rat, LC50 NRKE
[12] = tested on: K/1 = ras^K Transformed NRKE Cells; experiment: cells; details: Rattus norvegicus, read-out: LC50 K/1
[13] = tested on: K/1-NRKE tumor (ras^K-transformed NRKE cells)
[14] = read-out: LC50 3LL, Table XV (Example 51)

| Structure (SMILES) | Activity (Average PG for highest dose tested) Prostate Cancer [1] | Differential Index 3LL [2] | Activity (Average PG for highest dose tested) Breast Cancer (Breast Cancer cell lines) | CC50 [3] | Differential Index H/1.2 [3] | Activity (Average PG for highest dose tested) CNS Cancer (CNS Cancer cell lines) | Activity (Average PG for highest dose tested) Renal Cancer (Renal Cancer cell lines) | Activity (Average PG for highest dose tested) Leukemia (Leukemia cell lines) | Activity (Average PG for highest dose tested) Melanoma (Melanoma cell lines) | CC50 [4] | Differential Index K/1 [4] | Differential Index N/4.2 [5] | Activity (Average PG for highest dose tested) Ovarian Cancer [6] | Activity (Average PG for highest dose tested) Non-Small Cell Lung Cancer [7] | Activity (Average PG for highest dose tested) Colon Cancer (Colon Cancer cell lines) | CC50 [9] | CC50 [10] | CC50 [11, 14] | CC50 at 5 days (in vitro) | CC50 [12] | further results |
| --- | --- | --- | --- | --- | --- | --- | --- | --- | --- | --- | --- | --- | --- | --- | --- | --- | --- | --- | --- | --- | --- |
| CC(=O)NC1=CC(=O)c2ccc(-c3nc(C(N)=O)cc4c3[nH]c3ccccc34)nc2C1=O [Compound 16] | −18.0% | 4.29 | −45.1% | 0.23 µM | 3.91 | −60.4% | −72.9% | −28.3% | −78.4% | 0.35 µM | 2.57 | 4.09 | −55.5% | −52.3% | −52.1% |  |  |  |  |  | CC50 [2]: 0.21 µM; % inh. Trial 1 (HIV-RT; LA Conc. 3.0 (unit uncertain)): 0%; % inh. Trial 2 (HIV-RT; LA Conc. 3.0 (unit uncertain)): 3%; % inh. Trial 3 (HIV-RT; LA Conc. 3.0 (unit uncertain)): 12%; % inh. ave. (HIV-RT; LA Conc. 3.0 (unit uncertain)): 5.0%; % inh. Trial 1 (HIV-RT; LA Conc. 6.0 (unit uncertain)): 26%; % inh. Trial 2 (HIV-RT; LA Conc. 6.0 (unit uncertain)): 33%; % inh. Trial 3 (HIV-RT; LA Conc. 6.0 (unit uncertain)): 30%; % inh. ave. (HIV-RT; LA Conc. 6.0 (unit uncertain)): 29.7%; % inh. Trial 1 (HIV-RT; LA Conc. .5 (unit uncertain)): 0%; % inh. Trial 2 (HIV-RT; LA Conc. .5 (unit uncertain)): 0%; % inh. Trial 3 (HIV-RT; LA Conc. .5 (unit uncertain)): 0%; % inh. ave. (HIV-RT; LA Conc. .5 (unit uncertain)): 0.0%; Selectivity: sensitivity of one of the seven renal cancer cell lines relative to average sensitivity of the fifty-five cell lines (Renal Cancer cell lines; at GI50, TGI and/or LC50, initial screen): One of the seven renal cancer cell lines was about 100 times; selectivity for renal cancer (in words) (Renal Cancer cell lines; repeat cancer screen): did not exhibit the selectivity for renal cancer; CC50 [5]: 0.22 µM; CC50 [8]: 0.9 µM |
| CCCC(=O)NC1=CC(=O)c2ccc(C=O)nc2C1=O [Compound 26, 7-BUTYRAMIDO-2-FORMYLQUINOLINE-5,8-DIONE] | −81.5% | 1.2 | −35.0% |  | 0.9 | −61.0% | −93.0% | −10.8% | −79.0% |  | <0.9 | <0.9 | −63.2% | −50.9% | −17.9% | > 3.3 µM | 3.3 µM | 2.5 µM | 3 µM | > 3.3 µM |  |
| CC(=O)NC1=CC(=O)c2ccc(C)nc2C1=O [Compound 27, 7-ACETAMIDO-2-METHYLQUINOLINE-5,8-DIONE] |  | 1.8 |  |  | 0.9 |  |  |  |  |  | 0.3 | 0.8 |  |  |  | 5.7 µM | 5 µM | 2.6 µM | 2.4 µM | 14 µM | CC50 ([10]; 120 h): 4.4 µM; CC50 ([11]; 120 h, read-out: LC50 3LL, Table VII, concentration giving 50% cell kill, 5 days exposure): 2 µM; CC50 ([12]; 120 h): 5.9 µM; CC50 ([8]; rat, 5 days): 4.6 µM |
| CCCCCCCCOC(=O)c1cc2c([nH]c3ccccc32)c(-c2ccc3c(n2)C(=O)C(NC(C)=O)=CC3=O)n1 [Compound 21] | +69.5% |  | +62.9% | 7.6 µM |  | +59.3% | +67.5% | +20.3% | +58.6% | 0.25 µM |  |  | +47.0% | +13.0% | +62.3% |  |  |  |  |  | selective toxicity against ras^K oncogene bearing tumor cells as compared to the normal, non-transformed cells ([4]; LC50 NRKE divided by LC50 K/1): 132 fold; CC50 [5]: 9 µM; Number Dead Number Treated ([13]; 150 Mg/Kg/Day IP once daily for 8 days): 0/7; Number Dead Number Treated ([13]; 300 Mg/Kg/Day IP once daily for 8 days): 0/7; toxicity in tumor-bearing nude mice (in words) ([13]; even at doses up to 300 mg/kg/day): little or no toxicity; tumor growth inhibition in vivo (in words) ([13]; summary of Table X): excellent tumor growth inhibition |
| CCCC(=O)NC1=CC(=O)c2ccc(C)nc2C1=O [Compound 30, 7-BUTYRAMIDO-2-METHYLQUINOLINE-5,8-DIONE] | −79.0% | 0.9 | −62.7% |  | 0.7 | −93.8% | −92.0% | −21.7% | −85.1% |  | <0.6 | <0.6 | −86.7% | −71.1% | −66.6% | > 3.3 µM | 2.7 µM | 2.2 µM | 2 µM | > 3.3 µM | selectivity for leukemia (in words) (Leukemia cell lines; repeat cancer screen): showed selectivity for leukemia |
